Laboratory results reported in PubChem BioAssay AID1918945 (Molecular Pharmacology Branch, DTP, NCI, 2023).
Several values for one entry are separate records, joined by “and”; a condition that tells them apart may be missing. Equal entries are not always repeated.

System: 883617-216-R-J1-PDC complex spheroid viability
Test: Anticancer human tumor 883617-216-R-J1-PDC patient-derived bladder carcinoma cell line growth inhibition
Details: for viability, T/C: stronger effect = lower value
How it was run: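 Multicellular complex spheroids of tumor cells with human endothelial cells (HUVEC) and mesenchymal stem cells; the LSD1 inhibitor iadademstat was combined with standard-of-care or investigational agents. Top concentration at or near clinical Cmax, half-log dilutions; final DMSO ≤0.25%.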

[1] = curve of first compound, second compound 0.1 µM
[2] = curve of first compound, second compound 0.316 µM
[3] = curve of first compound, second compound 1 µM
[4] = curve of first compound, second compound 3.16 µM
[5] = curve of first compound, second compound 10 µM
[6] = second compound 0.1 µM, first compound 0.0316 µM
[7] = second compound 0.1 µM, first compound 0.1 µM
[8] = second compound 0.1 µM, first compound 0.316 µM
[9] = second compound 0.1 µM, first compound 1 µM
[10] = second compound 0.1 µM, first compound 3.16 µM
[11] = second compound 0.1 µM, first compound 10 µM
[12] = second compound 0.316 µM, first compound 0.0316 µM
[13] = second compound 0.316 µM, first compound 0.1 µM
[14] = second compound 0.316 µM, first compound 0.316 µM
[15] = second compound 0.316 µM, first compound 1 µM
[16] = second compound 0.316 µM, first compound 3.16 µM
[17] = second compound 0.316 µM, first compound 10 µM
[18] = second compound 1 µM, first compound 0.0316 µM
[19] = second compound 1 µM, first compound 0.1 µM
[20] = second compound 1 µM, first compound 0.316 µM
[21] = second compound 1 µM, first compound 1 µM
[22] = second compound 1 µM, first compound 3.16 µM
[23] = second compound 1 µM, first compound 10 µM
[24] = second compound 3.16 µM, first compound 0.0316 µM
[25] = second compound 3.16 µM, first compound 0.1 µM
[26] = second compound 3.16 µM, first compound 0.316 µM
[27] = second compound 3.16 µM, first compound 1 µM
[28] = second compound 3.16 µM, first compound 3.16 µM
[29] = second compound 3.16 µM, first compound 10 µM
[30] = second compound 10 µM, first compound 0.0316 µM
[31] = second compound 10 µM, first compound 0.1 µM
[32] = second compound 10 µM, first compound 0.316 µM
[33] = second compound 10 µM, first compound 1 µM
[34] = second compound 10 µM, first compound 3.16 µM
[35] = second compound 10 µM, first compound 10 µM
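Further: exposure lasted seven days after three days of spheroid growth.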
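Wherever viability, T/C is given: 100% = DMSO vehicle control luminescence.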

O=C(c1cc(Cc2n[nH]c(=O)c3ccccc23)ccc1F)N1CCN(C(=O)C2CC2)CC1 + NC1CC1c1ccc(-c2cccc(O)c2)cc1
IC50 [1]: 855 nM
IC50 [2]: 784 nM
IC50 [3]: 1070 nM
IC50 [4]: 526 nM
IC50 [5]: 160 nM
viability, T/C [6]: 94.1%
viability, T/C [7]: 86.6%
viability, T/C [8]: 72.5%
viability, T/C [9]: 45.8%
viability, T/C [10]: 37.5%
viability, T/C [11]: 36.4%
viability, T/C [12]: 96%
viability, T/C [13]: 87.7%
viability, T/C [14]: 65.5%
viability, T/C [15]: 46.5%
viability, T/C [16]: 34.9%
viability, T/C [17]: 31.9%
viability, T/C [18]: 91.3%
viability, T/C [19]: 71.8%
viability, T/C [20]: 60.8%
viability, T/C [21]: 59.5%
viability, T/C [22]: 33.5%
viability, T/C [23]: 26.9%
viability, T/C [24]: 93.3%
viability, T/C [25]: 84.1%
viability, T/C [26]: 53.7%
viability, T/C [27]: 42.1%
viability, T/C [28]: 35.9%
viability, T/C [29]: 25.5%
viability, T/C [30]: 58%
viability, T/C [31]: 53.4%
viability, T/C [32]: 47.1%
viability, T/C [33]: 38%
viability, T/C [34]: 31.1%
viability, T/C [35]: 26.5%

CCN(c1cc(-c2ccc(CN3CCOCC3)cc2)cc(C(=O)NCc2c(C)cc(C)[nH]c2=O)c1C)C1CCOCC1
viability, T/C (compound 0.00949 µM): 98.4% and 76.7%
viability, T/C (compound 0.03 µM): 84.1% and 80.7%
viability, T/C (compound 0.0949 µM): 85.5% and 79.5%
viability, T/C (compound 0.3 µM): 87.4% and 70.5%
viability, T/C (compound 0.949 µM): 89.7% and 63.1%
viability, T/C (compound 3 µM): 77.4% and 63.9%
IC50 (curve of compound): > 3000 nM

CC(C)c1c(-c2ccccc2)nc2c(C#N)c[nH]n2c1=O + NC1CC1c1ccc(-c2cccc(O)c2)cc1
IC50 [1]: > 10000 nM
IC50 [2]: > 10000 nM
IC50 [3]: > 10000 nM
IC50 [4]: > 10000 nM
IC50 [5]: > 10000 nM
viability, T/C [6]: 110%
viability, T/C [7]: 118%
viability, T/C [8]: 119%
viability, T/C [9]: 109%
viability, T/C [10]: 113%
viability, T/C [11]: 96%
viability, T/C [12]: 114%
viability, T/C [13]: 126%
viability, T/C [14]: 122%
viability, T/C [15]: 122%
viability, T/C [16]: 94.8%
viability, T/C [17]: 108%
viability, T/C [18]: 132%
viability, T/C [19]: 119%
viability, T/C [20]: 116%
viability, T/C [21]: 117%
viability, T/C [22]: 102%
viability, T/C [23]: 109%
viability, T/C [24]: 124%
viability, T/C [25]: 117%
viability, T/C [26]: 105%
viability, T/C [27]: 104%
viability, T/C [28]: 100%
viability, T/C [29]: 94.4%
viability, T/C [30]: 100%
viability, T/C [31]: 93.2%
viability, T/C [32]: 79.8%
viability, T/C [33]: 89.9%
viability, T/C [34]: 96.2%
viability, T/C [35]: 85.3%

CC1COCCN1c1cc(-c2ccnn2C)c2ccnc(-c3ccn[nH]3)c2n1 (configuration not stated) + NC1CC1c1ccc(-c2cccc(O)c2)cc1
IC50 [1]: 7.65 nM
IC50 [2]: 8.14 nM
IC50 [3]: 8.58 nM
IC50 [4]: 4.73 nM
IC50 [5]: 3.73 nM
viability, T/C (second compound 0.1 µM, first compound 0.00316 µM): 56.5%
viability, T/C (second compound 0.1 µM, first compound 0.01 µM): 49.9%
viability, T/C [6]: 37.2%
viability, T/C [7]: 29.1%
viability, T/C [8]: 24.6%
viability, T/C [9]: 18.8%
viability, T/C (second compound 0.316 µM, first compound 0.00316 µM): 63.4%
viability, T/C (second compound 0.316 µM, first compound 0.01 µM): 45.9%
viability, T/C [12]: 35.3%
viability, T/C [13]: 32.7%
viability, T/C [14]: 26%
viability, T/C [15]: 21%
viability, T/C (second compound 1 µM, first compound 0.00316 µM): 60.1%
viability, T/C (second compound 1 µM, first compound 0.01 µM): 49.8%
viability, T/C [18]: 32.8%
viability, T/C [19]: 29.1%
viability, T/C [20]: 23.1%
viability, T/C [21]: 20.4%
viability, T/C (second compound 3.16 µM, first compound 0.00316 µM): 56.6%
viability, T/C (second compound 3.16 µM, first compound 0.01 µM): 37.8%
viability, T/C [24]: 30.3%
viability, T/C [25]: 26.6%
viability, T/C [26]: 23.2%
viability, T/C [27]: 19.4%
viability, T/C (second compound 10 µM, first compound 0.00316 µM): 51.2%
viability, T/C (second compound 10 µM, first compound 0.01 µM): 41.9%
viability, T/C [30]: 27.6%
viability, T/C [31]: 25%
viability, T/C [32]: 22.6%
viability, T/C [33]: 19.7%

CC1COCCN1c1cc(C2(S(C)(=N)=O)CC2)nc(-c2ccnc3[nH]ccc23)n1 (configuration not stated) + NC1CCC(NC2CC2c2ccccc2)CC1
IC50 [1]: 1050 nM
IC50 [2]: 1130 nM
IC50 [3]: 1080 nM
IC50 [4]: 1350 nM
IC50 [5]: 1520 nM
viability, T/C [6]: 106%
viability, T/C [7]: 103%
viability, T/C [8]: 78.9%
viability, T/C [9]: 50.2%
viability, T/C [10]: 43.9%
viability, T/C [11]: 36.9%
viability, T/C [12]: 99.9%
viability, T/C [13]: 101%
viability, T/C [14]: 77.7%
viability, T/C [15]: 51.8%
viability, T/C [16]: 39.7%
viability, T/C [17]: 33%
viability, T/C [18]: 101%
viability, T/C [19]: 101%
viability, T/C [20]: 70.8%
viability, T/C [21]: 53.7%
viability, T/C [22]: 39%
viability, T/C [23]: 34.5%
viability, T/C [24]: 100%
viability, T/C [25]: 93%
viability, T/C [26]: 75.4%
viability, T/C [27]: 52.9%
viability, T/C [28]: 40.6%
viability, T/C [29]: 31.5%
viability, T/C [30]: 106%
viability, T/C [31]: 92.7%
viability, T/C [32]: 78.8%
viability, T/C [33]: 52%
viability, T/C [34]: 43.8%
viability, T/C [35]: 34.9%
